We go through 79 compounds from PubChem BioAssay AID489032 (Sanford-Burnham Center for Chemical Genomics, 2010).

Active and inactive are the calls of the source. The rule behind the calls is not given here. Bounds are passed on as bounds.

This assay relates to UPR adaptive arm reporter cells, luciferase luminescence. The experiment in a line: adaptive unfolded protein response reporter activation – cell-based, luciferase luminescence, dose response (AID 489032).
Take `Cc1cccc2sc(NC(=O)c3cc(S(=O)(=O)N(C)C)ccc3N3CCCC3)nc12`: the EC50 (commonly the concentration at which the effect is half-maximal) is 9.84 µM. `O=C(Nc1ccc([N+](=O)[O-])cc1)c1nc[nH]c1C(=O)NC1CCCCC1`: the EC50 is > 80 µM (inactive). `Cn1nnnc1Sc1ncnc2scc(-c3ccc(Br)cc3)c12`: the EC50 is > 80 µM (inactive). Consider `COc1ccc(C(=O)/C=C/c2cccs2)c(OC(=O)c2cccc([N+](=O)[O-])c2)c1`, for which the EC50 was > 80 µM (inactive). On to `COc1ccc2nc(/C(C#N)=C\c3ccc(Oc4ccc([N+](=O)[O-])cn4)cc3)[nH]c2c1`, for which the EC50 is > 80 µM (inactive). For `COc1cc(/C=C2/C(=N)N3C=CSC3=NC2=O)ccc1OCCCOc1cc(C)ccc1C` the value was > 80 µM (inactive); for `O=C(Cn1c2ccc(F)cc2c2nc3n(c(=O)c21)CCS3)Nc1ccc(Cl)cc1F`, > 80 µM (inactive). As for `CCN(CC)CCn1c(SCC(=O)Nc2ccc(F)cc2)nc2c(sc3ccccc32)c1=O`, the figure is > 80 µM (inactive); as for `CC1CN(S(=O)(=O)c2ccc(C(=O)Nc3nc(-c4cc5ccccc5o4)cs3)cc2)CC(C)O1` (centres undefined), > 80 µM (inactive); as for `CCN=C1S/C(=C\c2cn(CC(=O)NCc3ccco3)c3ccccc23)C(=O)N1CC`, > 80 µM (inactive). `O=C(NCC1CCCO1)c1nn2c(C(F)(F)F)cc(-c3cc(Br)cs3)nc2c1Br` (centres undefined): the EC50 is > 80 µM (inactive).

For `COc1ccc(N2CCN(Cc3cc(=O)oc4cc(-c5ccccc5)c(O)cc34)CC2)cc1`, the EC50 was > 80 µM (inactive). Consider `CC(C)(C)c1csc(NC(=O)c2ccc(Cl)s2)n1`, for which the EC50 is > 80 µM (inactive). Turning to `Cc1ccc2c(n1)sc1c(-c3ccc(Br)cc3)c(C#N)c(N)nc12`, the EC50 is > 80 µM (inactive). `CCCCCC(=O)Nc1ccc(C(=O)N/N=C/c2ccc([N+](=O)[O-])cc2)cc1`: the EC50 was > 80 µM (inactive).

For the compound `Cc1cc(NC(=O)c2cc(-c3ccccn3)nc3ccc(Br)cc23)no1`, the EC50 was > 80 µM (inactive). For the compound `CC(C)CC(NC(=O)c1ccc(Cl)cc1)C(=O)OCC(=O)c1ccc2c(c1)NC(=O)CO2` (centres undefined), the EC50 was > 80 µM (inactive). Regarding `Cc1ccc(Cn2c(C(C)Nc3nc(-c4ccc(F)cc4)cs3)nc3cc(Cl)c(Cl)cc32)cc1` (centres undefined), the EC50 is > 80 µM (inactive). In the case of `CCCCN(CC)S(=O)(=O)c1ccc(C(=O)N=c2sc3cc(NC(C)=O)ccc3n2C)cc1`, the EC50 is 5.4 µM. Take `Cc1ccc2nc(Nc3nc(C)cc(-c4ccccc4)n3)[nH]c(=O)c2c1`: the EC50 was > 80 µM (inactive). `C=CCn1c(O)c(C2=c3ccccc3=NC2=O)sc1=Nc1ccc(O)cc1`: the EC50 was 38.7 µM (inactive). As to `COc1cc(NC(=O)c2cncc(-c3ccc(C#N)cc3)c2)cc(C(=O)Nc2cccc(C(F)(F)F)c2)c1`, the EC50 is 46.3 µM (inactive). For `O=C(Nc1nc(-c2ccc3ccccc3c2)cs1)c1ccc(N2C(=O)CCC2=O)cc1`, the EC50 is > 80 µM (inactive). Take `Cc1ccc2c(c1)c(N=NC(N)=S)c(O)n2Cc1ccccc1`: the EC50 was 61.8 µM (inactive). As to `Cc1ccnc(N/C=C(\C#N)c2nc(-c3cccc(Br)c3)cs2)c1`, the EC50 is 20.7 µM (inactive).

Take `CC(C)(C)C(=O)NC(=S)NNC(=O)C(c1ccccc1)c1ccccc1`: the EC50 is 27 µM (inactive).

On to `CCOc1ccc(-n2c(C)cc(C(=O)CCl)c2C)cc1`, for which the EC50 is 8.94 µM. For the compound `O=C(Nc1ccc(SC(F)F)cc1)c1cc(-c2ccncc2)nc2ccccc12`, the EC50 was 34.7 µM (inactive). For the compound `CN(C)CCCNC(=O)c1ccc(-c2nc(-c3ccc(Cl)cc3)cs2)cc1`, the EC50 was > 80 µM (inactive).

On to `CC1CCN(Cc2c(C(=O)N/N=C/c3ccc(C(C)(C)C)cc3)nnn2-c2nonc2N)CC1`, for which the EC50 is > 80 µM (inactive).

Regarding `O=C(COc1ccc(Cl)cc1Cl)NN=C1c2ccccc2-c2ccccc21`, the EC50 is > 80 µM (inactive). For `O=C(/C=C/c1ccccc1)NC(NC(=S)Nc1cccc(Cl)c1)C(Cl)(Cl)Cl` (centres undefined), the EC50 was > 80 µM (inactive).

In the case of `CCOC(=O)C1=C(C)N=C2SC(C(=O)OC)=CC(=O)N2C1c1ccc(F)cc1` (centres undefined), the EC50 was 32.6 µM (inactive). On to `COc1ccc2[nH]c3c(c2c1)CCN1C(=O)C(CC(=O)NC/C=C(\C)CCC=C(C)C)C[C@H](C(=O)N2CCOCC2)[C@@]31CCC1CCCC1` (some centres undefined), for which the EC50 was > 80 µM (inactive). For `Cc1c(Cl)cccc1Nc1nc(NCCO)c2ccccc2n1`, the EC50 was 26.6 µM (inactive). As for `Cc1cc(C)c2c(c1)/C(=c1/sc3n(c1=O)CN(c1ccccc1)CN=3)C(=O)N2`, the figure is 19.2 µM; as for `O=C(Nc1ccc(C(F)(F)F)cc1)c1cc(-c2cccnc2)nc2ccc(Br)cc12`, 15.6 µM; as for `Cc1nn(Cc2c(Cl)cccc2Cl)c(C)c1NC(=O)c1cn(-c2ccccc2)nc1-c1ccccc1`, > 80 µM (inactive). As for `CC(C)(C)c1ccc(C(=O)Nc2ccc(O)c3c(=O)cc(-c4cccc(Cl)c4)oc23)cc1`, the figure is > 80 µM (inactive); as for `CCCn1c(SCc2nc3sc(C)c(C)c3c(=O)[nH]2)nc2ccccc2c1=O`, 72 µM (inactive); as for `COc1ccccc1-c1sc2cc3c(cc2c1-c1ccc(OCCN2CCCCC2)cc1)OCO3`, > 80 µM (inactive). Consider `CCOc1ccc(S(=O)(=O)Nc2cccc(C(=O)NCC3(N4CCCCC4)CCCCC3)c2)cc1`, for which the EC50 is 15.3 µM.

For the compound `CCN(CC)S(=O)(=O)c1ccc(N/N=C(\C)c2ccc3c(c2)OCO3)c([N+](=O)[O-])c1`, the EC50 is 22.1 µM (inactive). Regarding `Cc1ccc(NC(=O)Cn2c(/C=C/c3ccccc3)nc3ccccc32)cc1C`, the EC50 was > 80 µM (inactive). Regarding `Cc1nc2ccccc2n1-c1nc(-c2ccco2)cc(C(F)(F)F)n1`, the EC50 is > 80 µM (inactive).

On to `C=CCN1C(=O)/C(=C2/Sc3ccc(OC)cc3N2C)SC1=Nc1cccc(O)c1`, for which the EC50 was > 80 µM (inactive). For `Cc1c(NC(=O)CSc2ccc(Cl)cc2)cccc1-c1nc2cc(Cl)ccc2o1`, the EC50 is > 80 µM (inactive). Turning to `O=C(NCc1ccccc1Cl)c1cccc2c1C(=O)c1ccc(-c3ccc(OC(F)(F)F)cc3)cc1S2(=O)=O`, the EC50 is > 80 µM (inactive). On to `CCC[C@@H](CN[C@@H](CNC)[C@H](C)CC)NCC1CCC(C(C)(C)C)CC1` (some centres undefined), for which the EC50 is > 80 µM (inactive). In the case of `Cc1ccc(NC(=O)CSc2nc3ccccc3c3nc4ccccc4n23)cc1`, the 50% effective concentration (EC50) was 7.77 µM. Consider `CCOC(=O)c1nnn2c1nc(Nc1cccc(C(F)(F)F)c1)c1ccccc12`, for which the EC50 is 17.2 µM. With `Cc1cc(C)c2sc(N(CCCN(C)C)C(=O)c3ccc(S(=O)(=O)N4CCCc5ccccc54)cc3)nc2c1`, the EC50 was > 80 µM (inactive). As for `CC(C)Cn1c2c(c(=O)[nH]c1=O)C(C(F)(F)F)(C(F)(F)F)N=C(CCC1CCCCC1)N2`, the figure is > 80 µM (inactive); as for `Cc1ccc(NC(=O)c2ccc(N/N=C/c3cccc(O)c3)c([N+](=O)[O-])c2)cc1`, > 80 µM (inactive); as for `O=C(Oc1ccccc1/C=C\C(=O)c1cc2ccccc2o1)c1cccc(F)c1`, > 80 µM (inactive).

Consider `O=Cc1cc2ccccc2nc1SCc1ccc(Cl)cc1`, for which the EC50 is 40.2 µM (inactive).

On to `O=C(/C=C/c1cc([N+](=O)[O-])ccc1OC(F)F)Nc1cccc([N+](=O)[O-])c1`, for which the EC50 is > 80 µM (inactive).

For the compound `COc1ccc(-n2c(C)cc(C(=O)CCl)c2C)cc1`, the EC50 is > 80 µM (inactive). For `CCOC(=O)C1=C(C)N=c2s/c(=C3/C(=O)Nc4ccccc43)c(=O)n2C1c1ccc(C)cc1` (centres undefined) the value was > 80 µM (inactive); for `O=C(Nc1nc2ccccc2s1)c1cc2c(s1)-c1ccccc1OC2`, 44.9 µM (inactive); for `O=C1NC(=O)C(=Cc2cn(CCOc3ccc4c(c3)OCO4)c3ccccc23)C(=O)N1`, 31.2 µM (inactive).

Regarding `COc1ccc(NC(=O)C(=O)N/N=C\c2ccc(CNC(=O)C(=O)Nc3ccc(C)c(C)c3)o2)c(OC)c1`, the EC50 was > 80 µM (inactive). `COc1cccc2sc(N3CCN(c4nc5ccccc5s4)CC3)nc12`: the EC50 was > 80 µM (inactive). For `C/C(=N/NC(=O)c1ccc(C)s1)c1cccc(NC(=O)COc2ccc(Cl)cc2C)c1` the value was 72.4 µM (inactive); for `CC1CCCN(c2ccc(C(=O)NCc3cccs3)cn2)C1` (centres undefined), > 80 µM (inactive). Take `Cc1cc(NC(=O)/C(C#N)=C/c2ccc(-c3ccc(SC(F)F)cc3)o2)n(-c2ccccc2)n1`: the EC50 is > 80 µM (inactive). Consider `CCOC(=O)c1nnc(-c2ccc(C)cc2)nc1Oc1ccccc1Cl`, for which the EC50 was > 80 µM (inactive). On to `O=C(N/N=C/c1ccccc1Cl)c1[nH]c2ccc(Br)cc2c1-c1ccccc1`, for which the EC50 is 32.9 µM (inactive). For `CC1CCN(Cc2c(C(=O)N/N=C/c3ccc(C(F)(F)F)cc3)nnn2-c2nonc2N)CC1`, the EC50 is > 80 µM (inactive). Regarding `CCOC(=O)c1c(NC(=O)c2cc(C)on2)c2cc([N+](=O)[O-])ccc2n1C`, the EC50 is > 80 µM (inactive). Take `Cc1ccc(-n2nc3cc(C)c(NC(=S)NC(=O)/C=C/c4ccco4)cc3n2)cc1`: the EC50 was 35.9 µM (inactive). For the compound `CCC(=O)Nc1ccc(-c2cc(-c3ccccc3)nc(-c3ccc(NC(=O)CC)cc3)n2)cc1`, the EC50 is > 80 µM (inactive). As for `Cc1ccc(-n2nc3c(N4CCC(C(=O)NCCc5ccccc5C)CC4)nnc(C)c3c2C)cc1`, the figure is > 80 µM (inactive); as for `CCc1ccc2[nH]c3nc(SCc4nnc(-c5ccc(C)cc5)o4)nnc3c2c1`, 39.9 µM (inactive).

Regarding `COc1ccc(C(CCNCc2ccccc2)c2ccc(F)cc2)cc1` (centres undefined), the EC50 is 10.7 µM. As to `OCCCn1c(C2CCCN2c2nc(-c3ccc(Cl)cc3)cs2)nc2cc(Cl)c(N3CCCCC3)cc21` (centres undefined), the EC50 was > 80 µM (inactive). As for `Cn1c(=O)c2c(SCC(=O)Nc3ccccc3F)nc(-c3ccccc3F)nc2n(C)c1=O`, the figure is 36.1 µM (inactive); as for `CCc1cc2c(=O)c(-c3cnn(-c4ccccc4)c3)c(C)oc2cc1OCC(=O)Nc1cccc(C)c1`, > 80 µM (inactive); as for `O=C1NC(=O)N(Cc2ccccc2)C(=O)/C1=C\c1ccco1`, > 80 µM (inactive).
